From patent US20090111781A1, “Use of Cymipristone Type Compounds in Aids Treatment” (SHANGHAI THREE-ALLIANCE BIOTECHNOLOGIES CO., LTD., priority 2005, published 2009) come the findings set out here.

Each structure is given as a SMILES string.

One assay addresses estrogen receptor ERβ (Homo sapiens, UniProt Q92731). Briefly: Binding activity on human nuclear receptor ERβ. The settings on record: mean ± SD, n = 4. How it is done:
(§1) Buffer solution is composed of 25 mM NaPO4, 20 mM NaMoO4, 10 mM KF and 10% glycerol (pH=7.3) and stored under 4° C. Stock solution is prepared with CHAPS and DTT and stored under −20° C. […] Add 2.5 μl/hole into 96-pore plate. Take out appropriate amount of buffer solution reserve into solution to make the final concentration of CHAPS and DDT to become 0.25 mM and 2 mM respectively. Add protease inhibitors (aprotinin and leupeptin) to make its final concentration to become 1 μg/μl, and place in an ice bath. After adding human nuclear receptor GR (1:8), PR (1:100), ER (1:2000), AR (1:200) and MR (1:40) into the reaction system respectively, adequately mix suitable quantity of [^3H]-dexamethasone, [^3H]-progesterone, [^3H]-estradiol and [^3H]-DHT (from Amersham), rapidly add into 96-pore plate (100 μl/pore) and incubate overnight under 4° C. On the next day, add 25 μl of hydroxyapatite suspension into each pore and mix with shaking. After incubating for 10 min, separate by centrifuge for 3 min at 2500 rpm. The precipitate is washed with 100 μl of buffer solution and separated by centrifuge twice. Add 150 μl of scintillation solution (from Perkin Elmer) into each pore, mix with shaking and count by MicroBeta counter.

Another assay has as its system thymus gland cells. Briefly: Anti-glucocorticoid activity test, [3H]-TdR incorporation in rat thymus gland cells. The assay is classed as cell-based. The settings on record: for Antagonism against dexamethasone (incorporation rate of [3H]-TdR): n = 4. The procedure: Clean female SD rats, body weight 200-250 g, are fed with certain quantity of food and freely drink water. The temperature is controlled at about 24° C. and an illumination cycle are for 11 hours by day and 13 hours at night. All animals are observed for 1 week before experiment. Rats are anesthetized with ethyl ether. Incisions are made on two sides below costal arch of ribs on dorsal position of rats to extirpate adrenal glands. The rats are fed with physiological saline after operation. On the seventh day, animals are acutely executed. Take out thymus gland to place in to HBSS buffer solution, wash twice, remove connective tissue, cut the tissue with scissors, lightly grind with homogenizer, filter with three layers of gauze, and centrifuge the filtrate for 5 min (500 rpm). Wash the precipitated cells twice with HBSS, re-suspend the cells in RPMI1640 culture medium for cell count and cell survival rate determination, and adjust cell concentration to 1×10^7/ml. Determination of anti-glucocorticoid activity: Add tested compound into culture medium, reaction concentration 6×10^−[…], and place in 37° C. incubator for 3 hours. Add thymus gland cells to make cell concentration to become 10^7/ml and incubate at 37° C. for 3 hours. Add 1 μCi of label substance, mix, and incubate for 1 hour. Add 100 μl of ice cold 5% trichloroacetic acid to end the reaction. Place the test tube on ice and wash twice with 2 ml of ice cold 5% trichloroacetic acid and centrifuge twice, 500 rpm×5 min, Add 0.5 ml of 1N NaOH to dissolve the precipitated cells, pipet out the liquid, dry the residue with cotton stick, place into same scintillation bottle, and determine the radioactivity by liquid scintillation counter.
Calculate the incorporation rate of [^3H]-TdR:
In which: T=[^3H]-TdR count without presence of compound, Td=count with presence of compound, and NSB=non-specific adsorption.
Inhibition rate=100%−incorporation rate

Assay [1] addresses T1, mineralocorticoid receptor (MR) (Homo sapiens, UniProt P08235).
T1 sequence (P08235 1-984): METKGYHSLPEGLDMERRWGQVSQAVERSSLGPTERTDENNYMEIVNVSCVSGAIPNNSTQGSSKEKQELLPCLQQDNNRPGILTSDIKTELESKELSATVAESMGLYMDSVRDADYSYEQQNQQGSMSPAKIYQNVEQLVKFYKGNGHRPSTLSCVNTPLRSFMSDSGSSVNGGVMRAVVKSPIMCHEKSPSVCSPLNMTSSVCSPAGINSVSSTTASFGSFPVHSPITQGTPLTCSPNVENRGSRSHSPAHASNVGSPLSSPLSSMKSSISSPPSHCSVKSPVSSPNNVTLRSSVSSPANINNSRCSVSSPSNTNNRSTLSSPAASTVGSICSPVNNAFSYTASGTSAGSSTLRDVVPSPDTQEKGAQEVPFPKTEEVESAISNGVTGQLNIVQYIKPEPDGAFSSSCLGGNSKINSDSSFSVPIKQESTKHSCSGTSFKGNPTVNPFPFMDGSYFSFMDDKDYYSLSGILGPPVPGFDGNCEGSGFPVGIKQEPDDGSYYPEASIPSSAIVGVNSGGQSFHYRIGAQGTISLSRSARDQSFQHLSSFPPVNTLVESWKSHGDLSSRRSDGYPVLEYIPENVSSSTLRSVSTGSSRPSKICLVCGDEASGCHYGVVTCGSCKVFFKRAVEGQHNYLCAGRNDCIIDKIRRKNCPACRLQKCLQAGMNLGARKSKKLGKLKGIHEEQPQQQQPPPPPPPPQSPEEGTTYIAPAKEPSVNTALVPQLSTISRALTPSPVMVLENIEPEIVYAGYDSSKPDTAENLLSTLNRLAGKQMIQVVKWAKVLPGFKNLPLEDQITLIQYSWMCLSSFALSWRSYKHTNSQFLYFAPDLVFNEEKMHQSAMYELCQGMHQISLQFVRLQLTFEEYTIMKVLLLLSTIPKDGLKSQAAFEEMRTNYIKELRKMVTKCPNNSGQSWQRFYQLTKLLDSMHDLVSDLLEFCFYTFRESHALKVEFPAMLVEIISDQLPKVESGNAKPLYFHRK
Briefly: Binding activity on human nuclear receptor MR. The settings on record: n = 4. How it is done:
as §1

Setting [2] is: Rattus norvegicus, read-out: Residual inhibition rate of dexamethasone.

Chain of estrogen receptor ERβ (Q92731 whole entry): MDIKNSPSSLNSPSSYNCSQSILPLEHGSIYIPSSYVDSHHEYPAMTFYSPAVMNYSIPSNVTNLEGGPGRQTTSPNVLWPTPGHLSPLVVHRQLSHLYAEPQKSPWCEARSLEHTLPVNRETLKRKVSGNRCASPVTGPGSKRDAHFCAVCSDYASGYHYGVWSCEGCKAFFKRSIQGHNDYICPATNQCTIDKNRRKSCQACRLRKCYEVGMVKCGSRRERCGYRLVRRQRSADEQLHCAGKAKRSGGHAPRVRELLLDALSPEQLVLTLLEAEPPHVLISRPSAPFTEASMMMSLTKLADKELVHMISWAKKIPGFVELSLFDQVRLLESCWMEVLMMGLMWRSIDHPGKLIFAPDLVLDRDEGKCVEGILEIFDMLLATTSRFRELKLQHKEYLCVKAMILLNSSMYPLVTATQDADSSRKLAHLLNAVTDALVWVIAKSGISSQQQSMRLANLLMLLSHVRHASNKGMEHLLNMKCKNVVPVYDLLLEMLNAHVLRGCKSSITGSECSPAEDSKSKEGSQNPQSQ

In general, IC50 refers to the concentration needed to halve the response being measured. On to `CC#C[C@]1(O)CC[C@H]2[C@@H]3CCC4=CC(=O)CCC4=C3[C@@H](c3ccc(N(C)C4CCCCC4)cc3)C[C@@]21C` [Cymipristone, 11β-[4-(N-methyl-N-cyclohexylamino)phenyl]-17α-(1-propynyl)-17β-hydroxyl-4,9-estradiene-3-one], for which the figures for the IC50 (at estrogen receptor ERβ; in assay [1]) were 278.7 ± 0.63 nM and > 2000 nM, respectively. The “Anti-glucocorticoid activity (in words)” value with thymus gland cells is on record as “Result shows that cymipristone has anti-glucocorticoid activity”. Besides, in the assay on thymus gland cells (setting [2]), the activity at 0.06 µM was determined as 35.2 ± 2.4%. Further, the activity at 0.2 µM in the assay with thymus gland cells (setting [2]) came to 57.7 ± 3.5%. Besides, the activity at 0.6 µM in the assay with thymus gland cells (setting [2]) amounted to 42.2 ± 1.9%. The activity at 2 µM in the assay on thymus gland cells (setting [2]) came to 64.1 ± 5.6%. Also, the “Antagonism against dexamethasone (incorporation rate of [3H]-TdR)” value in the assay with thymus gland cells (cymipristone 2 × 10^−6 mol/L with dexamethasone 6×10^−8 mol/L) turned out to be 63.6 ± 5.1%; with thymus gland cells (cymipristone 2 × 10^−7 mol/L with dexamethasone 6×10^−8 mol/L) it was 67.2 ± 2.9%; in the assay on thymus gland cells (cymipristone 6 × 10^−7 mol/L with dexamethasone 6×10^−8 mol/L), 76.0 ± 3.8%; in the assay on thymus gland cells (cymipristone 6 × 10^−8 mol/L with dexamethasone 6×10^−8 mol/L), 80.0 ± 4.3%.
